Results as given in paper PMC6943619, “Synthesis and Pharmacological Evaluation of Hybrids Targeting Opioid and Neurokinin Receptors” (Molecules, 2019).
Where a SMILES comes first, the peptide text is derived from it. Bridges are numbered along the chain shown (N, C = ends). [ ]: non-standard residue; d: D form. Nle = CCCC[C@H](N)C(=O)O

What was measured:
[1] = tested on: mice; experiment: Writhing test (acetic acid, acute pain model); type: in vivo; conditions: 5 mg/kg i.p., single injection 15 min before i.p. acetic acid (0.5%, 10 mL/kg), writhes counted 15 min, saline baseline about 35, average, n = 10
Experimental: The writhing test was used as an acute pain model. This test involves intraperitoneal (i.p.) injection of acetic acid which results in abdominal constriction, causing the mice to writhe. Peptides or saline (control) were administered i.p. over a concentration range of 0.3 to 5 mg/kg at 15 min before the injection of acetic acid (0.5%, 10 mL/kg). The baseline number of writhes in the saline-treated animals was about 35.
Peptides or vehicle were administered 15 min before the i.p. injection of acetic acid (0.5%, 10 mL/kg). The number of writhes was determined 5 min after acetic acid injection over a period of 15 min. The data represent mean ± SEM, n = 10.
Male Balb/c mice (Animal Facility of Nofer Institute of Occupational Medicine, Lodz, Poland) weighing 22–25 g were used in the study. The animals were housed under standard conditions (22 ± 1 °C, 12 h light/dark cycle) with food and water ad libitum for five days before the experiments.
Antinociceptive activity was assessed by the writhing test. Mice were divided into groups of 10 animals each. A single i.p. injection of saline or a tested compound (at doses 0.3, 1, 3, or 5 mg/kg) was followed (after 15 min) by the i.p. administration of acetic acid (0.65% in 0.9% NaCl, 10 mL/kg) [53]. After 5 min recovery, specific spontaneous behaviors characterized by elongation of the body (“writhes”) were counted for 15 min.

[2] = target: T1, human NK1 (Homo sapiens, UniProt P25103); experiment: Calcium mobilization functional assay, agonist mode, CHONK1 cells; type: cell-based; design: expressed in transfected cells; host or cells: CHO cells (gift of Prof. T. Costa, ISS, Rome); conditions: for NK1 α ± SEM: efficacy (intrinsic activity), Emax relative to SP
T1 sequence (P25103 whole entry): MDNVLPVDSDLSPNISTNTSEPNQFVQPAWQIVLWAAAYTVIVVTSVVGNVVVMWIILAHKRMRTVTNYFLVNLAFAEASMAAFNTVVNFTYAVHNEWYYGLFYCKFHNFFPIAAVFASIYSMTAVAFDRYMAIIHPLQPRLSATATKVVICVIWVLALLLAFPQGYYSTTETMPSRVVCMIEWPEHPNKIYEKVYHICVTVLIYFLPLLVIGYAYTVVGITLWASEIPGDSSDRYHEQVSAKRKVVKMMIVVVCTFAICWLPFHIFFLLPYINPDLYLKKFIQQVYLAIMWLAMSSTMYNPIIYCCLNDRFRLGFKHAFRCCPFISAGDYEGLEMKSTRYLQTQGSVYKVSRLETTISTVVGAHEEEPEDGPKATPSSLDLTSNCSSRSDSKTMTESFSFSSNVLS

[3] = tested on: mice; experiment: Stool collection (stool mass, stool water content); type: in vivo; conditions: repeated i.p. injections 5 mg/kg, stool collected 90 min after injection on Days 1–6, compared to control group, n = 10
Experimental: In order to determine the influence of prolonged administration of the tested compounds on gastrointestinal passage, stool was collected for six days from mice used in the tolerance development test.
Figure 5 Effect of repeated i.p. injections of saline and the tested peptides on stool mass (A), stool water content (B), food intake (C), and water consumption (D). The data represent mean ± SEM, n = 10. Statistical significance was assessed using one-way ANOVA and a post hoc multiple comparison by the Student–Newman–Keuls test. *** p < 0.001, as compared to control.
After the i.p. injections of saline or peptides (Days 1–6), mice were placed in a separate clean cages and stool was collected for a period of 90 min. Fecal pellets were collected immediately after expulsion to avoid evaporation and placed in closed 1.5 mL tubes. Tubes were weighed to obtain the wet weight of the stool. Then, the tubes were opened and stool was dried overnight at 65 °C and reweighed to obtain the dry weight. The stool water content was calculated from the difference between the wet and dry stool weights.

[4] = target: T2, DOR (Homo sapiens, UniProt P41143); experiment: Calcium mobilization functional assay, agonist mode; type: cell-based; conditions: CHO cells co-expressing DOR and GαqG66Di5, n = 5; for DOR pEC50 (CL95%): Fluo-4 AM calcium signal; for DOR α ± SEM: efficacy (intrinsic activity), Emax relative to DPDPE, mean ± SEM
T2 construct: expressed in transfected cells; host or cells: CHO cells (University of Ferrara), co-expressing GαqG66Di5
T2 sequence (P41143 whole entry): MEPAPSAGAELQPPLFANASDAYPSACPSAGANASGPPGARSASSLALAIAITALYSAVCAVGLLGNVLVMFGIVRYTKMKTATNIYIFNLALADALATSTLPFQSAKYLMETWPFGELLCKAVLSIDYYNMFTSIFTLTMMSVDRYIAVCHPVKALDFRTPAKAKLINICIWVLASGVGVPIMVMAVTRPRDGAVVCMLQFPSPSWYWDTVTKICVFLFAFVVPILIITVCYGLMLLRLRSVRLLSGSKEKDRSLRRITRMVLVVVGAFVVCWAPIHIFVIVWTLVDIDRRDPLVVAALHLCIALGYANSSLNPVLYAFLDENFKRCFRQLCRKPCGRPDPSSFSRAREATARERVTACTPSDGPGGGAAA

[5] = target: T1, human NK1; experiment: Radioligand binding assay, displacement of [3H][Sar9, Met(O2)11]SP; design: purchased PerkinElmer (Krakow, Poland); host or cells: CHO cell membranes; conditions: displacement of [3H][Sar9, Met(O2)11]SP from membranes of CHO cells transfected with human NK1 receptor; 50 mM Tris/HCl pH 7.4, 0.5% BSA, peptidase inhibitors, 2 h at 25 °C; mean ± SEM, n ≥ 3; SEM
Experimental: The binding assay was also used to examine the affinity of the synthesized hybrids for NK1 in commercial membranes of CHO cells stably expressing human NK1.
(§1) To determine the affinity of peptide analogs to respective receptors, competition binding experiments were performed, as described in detail elsewhere.
(§2) Commercial membranes of CHO cells stably expressing either human ORs or NK1 receptor were used. […] Membranes were incubated in a 0.5 mL volume of 50 mM Tris/HCl (pH = 7.4), 0.5% bovine serum albumin (BSA), with a number of peptidase inhibitors (bacitracin, bestatin, captopril) and various concentrations of radioligands for 2 h at 25 °C.
(§3) The pharmacological terminology adopted in this paper is consistent with International Union of Basic and Clinical Pharmacology (IUPHAR) recommendations. Concentration–response curves were analyzed by nonlinear regression using Graph Pad Prism 6.0 (La Jolla, CA, USA). […] Concentration–response curves were fitted with the four-parameter logistic nonlinear regression model (1) Effect=baseline+Emax−baseline/1+10^logEC50−X·n where X is the agonist concentration and n is the Hill coefficient. Ligand efficacy was expressed as intrinsic activity (α) calculated as a ratio of the peptide Emax to the Emax of the standard agonist (Supplementary Materials, Figure S7). […] All statistical analyses were performed using Graph Pad Prism 6.0 (La Jolla, CA, USA). Differences between groups were analyzed with one-way ANOVA and a post hoc multiple comparison by the Student–Newman–Keuls test. A probability level of 0.05 or smaller was used to indicate statistical significance.

[6] = target: T3, human opioid receptor DOR (Homo sapiens, UniProt P41143); experiment: Radioligand binding assay, displacement of [3H]deltorphin-2; conditions: displacement of [3H]deltorphin-2 from membranes of CHO cells transfected with human DOR, 50 mM Tris/HCl pH 7.4, 0.5% BSA, peptidase inhibitors, 2 h at 25 °C, mean ± SEM, n ≥ 3
T3 construct: purchased PerkinElmer (Krakow, Poland); host or cells: CHO cell membranes
T3 sequence (P41143 whole entry): as above
Experimental: A radioligand binding assay was performed to determine the opioid receptor (OR) binding affinities of the novel analogs using commercially available membranes of Chinese hamster ovary cells (CHO) transfected with human recombinant ORs. […] Tyr-[D-Lys-Phe-Phe-Asp]NH2 (1) was used as a reference opioid compound.
as §1, §2, §3

[7] = target: T4, human MOR (Homo sapiens, UniProt P35372); experiment: Calcium mobilization functional assay, agonist mode; type: cell-based; conditions: for MOR α ± SEM: efficacy (intrinsic activity), Emax relative to EM-2, mean ± SEM
T4 construct: expressed in transfected cells; host or cells: CHO cells (University of Ferrara), co-expressing Gαqi5
T4 sequence (P35372 whole entry): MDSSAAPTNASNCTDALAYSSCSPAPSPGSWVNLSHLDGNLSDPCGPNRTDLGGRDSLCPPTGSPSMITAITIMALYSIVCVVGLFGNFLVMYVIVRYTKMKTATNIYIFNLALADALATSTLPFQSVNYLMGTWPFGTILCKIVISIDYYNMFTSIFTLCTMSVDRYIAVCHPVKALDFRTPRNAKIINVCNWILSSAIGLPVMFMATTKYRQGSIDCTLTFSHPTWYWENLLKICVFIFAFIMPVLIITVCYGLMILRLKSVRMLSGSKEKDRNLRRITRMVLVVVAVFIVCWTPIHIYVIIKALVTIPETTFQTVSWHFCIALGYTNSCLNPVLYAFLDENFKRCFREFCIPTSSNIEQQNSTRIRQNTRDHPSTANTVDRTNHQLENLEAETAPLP

[8] = CHO cells co-expressing human MOR and Gαqi5, n = 5, SEM

SMILES: CSCC[C@H](NC(=O)[C@H](CC(C)C)NC(=O)CNC(=O)[C@H](Cc1ccccc1)NC(=O)[C@H](Cc1ccccc1)NC(=O)[C@H](CCC(N)=O)NC(=O)[C@@H]1CC(=O)NCCCC[C@@H](NC(=O)[C@@H](N)Cc2ccc(O)cc2)C(=O)N[C@@H](Cc2ccccc2)C(=O)N[C@@H](Cc2ccccc2)C(=O)N1)C(N)=O [compound 4, Tyr-[D-Lys-Phe-Phe-Asp]-Gln-Phe-Phe-Gly-Leu-Met-NH2] (H-Y[dK]FFDQFFGLM-NH2; lactam 2-5)
- number of writhes [1]: 4.5
- EC50 [2]: 3.55 nM
- lower potency at NK1 than SP ([2]; calcium mobilization, CHONK1 cells, from pEC50 values): fourfold
- NK1 α ± SEM ([2]; CHONK1 cells, N = 5, SEM): 0.96 ± 0.05
- stool mass (constipation) [3]: no statistically significant differences
- DOR pEC50 (CL95%) [4]: Crc incomplete
- DOR α ± SEM [4]: Crc incomplete
- Ki [5]: 15.6 ± 1.23 nM
- Ki [6]: 225 ± 14 nM
- MOR α ± SEM [7, 8]: 0.90 ± 0.04

SMILES: CCCC[C@H](NC(=O)[C@H](CC(C)C)NC(=O)[C@@H](Cc1c[nH]c2ccccc12)NC(=O)[C@H](Cc1ccccc1)NC(=O)[C@@H](Cc1c[nH]c2ccccc12)NC(=O)[C@H](CC(N)=O)NC(=O)[C@@H]1CC(=O)NCCCC[C@@H](NC(=O)[C@@H](N)Cc2ccc(O)cc2)C(=O)N[C@@H](Cc2ccccc2)C(=O)N[C@@H](Cc2ccccc2)C(=O)N1)C(N)=O [compound 2, Tyr-[D-Lys-Phe-Phe-Asp]-Asn-D-Trp-Phe-D-Trp-Leu-Nle-NH2] (H-Y[dK]FFDN[dW]F[dW]L[Nle]-NH2; lactam 2-5)
- number of writhes [1]: 12.4
- NK1 pEC50 (CL95%) ([2]; CHO cells expressing human NK1 (CHONK1), Fluo-4 AM calcium signal, N = 5): Inactive
- NK1 α ± SEM ([2]; CHONK1 cells, N = 5): Inactive
- stool mass (constipation) [3]: no statistically significant differences
- DOR pEC50 (CL95%) [4]: Crc incomplete
- DOR α ± SEM [4]: Crc incomplete
- Ki [5]: 10.5 ± 0.6 nM
- Ki [6]: 202 ± 2.5 nM
- EC50 ([7]; CHO cells co-expressing human MOR and Gαqi5, Fluo-4 AM calcium signal, n = 5, read-out: MOR pEC50 (CL95%) (converted)): 31.6 nM
- lower potency at MOR as compared with 1 ([7]; calcium mobilization, from pEC50 values): 30 fold
- MOR α ± SEM ([7]; CHO cells co-expressing human MOR and Gαqi5, n = 5): 0.66
- MOR α ± SEM [7, 8]: 0.66 ± 0.04
